Patent US20240269139A1, “COMPOUNDS FOR TARGETED PROTEIN DEGRADATION OF KINASES” (DANA-FARBER CANCER INSTITUTE, INC., priority 2020, published 2024)
Where two headings read alike, the source gives them in different places.

Experiments:
Type in all cases: cell-based
[1] = target: T1, protein kinases (human kinome) (Homo sapiens, UniProt O75385); conditions: for logFC: ULK1 (O75385) protein abundance, degrader vs DMSO, down; for logFC ULK1: ULK1 O75385
T1 sequence (O75385 1-1050): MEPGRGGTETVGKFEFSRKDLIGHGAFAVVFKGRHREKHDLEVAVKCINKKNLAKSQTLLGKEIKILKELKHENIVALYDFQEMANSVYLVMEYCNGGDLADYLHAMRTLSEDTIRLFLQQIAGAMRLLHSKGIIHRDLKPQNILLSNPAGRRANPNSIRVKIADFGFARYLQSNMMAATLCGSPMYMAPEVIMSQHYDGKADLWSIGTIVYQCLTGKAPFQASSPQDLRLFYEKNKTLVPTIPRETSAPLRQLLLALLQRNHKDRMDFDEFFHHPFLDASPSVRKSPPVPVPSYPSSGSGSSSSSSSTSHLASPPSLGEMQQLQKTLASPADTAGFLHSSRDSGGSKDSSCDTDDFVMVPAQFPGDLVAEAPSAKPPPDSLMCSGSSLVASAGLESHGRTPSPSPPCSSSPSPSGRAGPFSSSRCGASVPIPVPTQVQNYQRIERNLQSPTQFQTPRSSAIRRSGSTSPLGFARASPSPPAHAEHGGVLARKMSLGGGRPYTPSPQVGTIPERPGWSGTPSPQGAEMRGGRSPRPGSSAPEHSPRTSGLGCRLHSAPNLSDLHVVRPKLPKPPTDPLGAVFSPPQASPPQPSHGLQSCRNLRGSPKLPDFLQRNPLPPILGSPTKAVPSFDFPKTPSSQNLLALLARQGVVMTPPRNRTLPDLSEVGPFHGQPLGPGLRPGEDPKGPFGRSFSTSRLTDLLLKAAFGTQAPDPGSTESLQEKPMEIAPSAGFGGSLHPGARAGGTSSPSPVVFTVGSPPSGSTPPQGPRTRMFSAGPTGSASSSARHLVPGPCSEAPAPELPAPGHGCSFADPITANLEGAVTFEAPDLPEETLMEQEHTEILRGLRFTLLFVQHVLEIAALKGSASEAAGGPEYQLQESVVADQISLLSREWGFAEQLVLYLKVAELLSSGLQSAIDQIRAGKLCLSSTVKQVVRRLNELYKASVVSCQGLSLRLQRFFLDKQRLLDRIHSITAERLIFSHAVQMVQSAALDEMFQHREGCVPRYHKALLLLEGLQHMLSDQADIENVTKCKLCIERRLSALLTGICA

[2] = tested on: protein kinases (human kinome); conditions: for logFC MAPK8: MAPK8 P45983-4; for logFC PTK2B: accession Q14289-2; for kinases the bifunctional compound degrades: as stated for the structure in the embodiments; for Kinase hits: kinases significantly downregulated vs DMSO (fold change cutoff −1.25, P-value<0.01), ≤8 h, 0.1-5 μM degrader, 7 cell lines; for Total no. kinase hits: number of degraded kinases per library compound
[3] = target: protein kinases (human kinome) (Homo sapiens, UniProt Q9H0K1); conditions: experiment wp168; for logFC of SIK2: Accession Q9H0K1; for logFC SIK2 (Q9H0K1): direction of change down
[4] = target: protein kinases (human kinome) (Homo sapiens, UniProt P30291)
[5] = Experiment wp168, direction down
[6] = MAPK14, accession Q16539-2, experiment wp168, direction of change down
[7] = MAPK14 Q16539-2, experiment wp168
[8] = PTK2B (Q14289-2), experiment wp168, direction down
[9] = experiment wp168, direction of change down
[10] = AURKB Q96GD4-5, experiment wp137

Sequence of protein kinases (human kinome) (Homo sapiens, UniProt P30291) (P30291 whole entry): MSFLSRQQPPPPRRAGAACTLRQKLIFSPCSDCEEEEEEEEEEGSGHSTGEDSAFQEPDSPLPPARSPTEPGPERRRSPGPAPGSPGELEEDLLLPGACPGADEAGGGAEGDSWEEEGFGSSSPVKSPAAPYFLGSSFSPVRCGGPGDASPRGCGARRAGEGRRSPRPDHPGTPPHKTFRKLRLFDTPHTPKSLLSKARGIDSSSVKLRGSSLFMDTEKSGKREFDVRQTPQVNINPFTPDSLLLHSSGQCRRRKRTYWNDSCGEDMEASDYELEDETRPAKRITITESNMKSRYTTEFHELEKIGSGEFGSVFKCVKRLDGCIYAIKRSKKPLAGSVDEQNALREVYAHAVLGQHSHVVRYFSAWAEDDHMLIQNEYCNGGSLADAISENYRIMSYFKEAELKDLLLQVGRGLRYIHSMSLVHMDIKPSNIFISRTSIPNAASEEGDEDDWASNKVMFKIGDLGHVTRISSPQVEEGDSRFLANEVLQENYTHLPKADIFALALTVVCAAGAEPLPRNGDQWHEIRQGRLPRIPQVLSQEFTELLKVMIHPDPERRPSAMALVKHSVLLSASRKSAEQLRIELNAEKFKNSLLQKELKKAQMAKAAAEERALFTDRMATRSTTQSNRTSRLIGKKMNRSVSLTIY
Sequence of protein kinases (human kinome) (Homo sapiens, UniProt Q9H0K1) (Q9H0K1 whole entry): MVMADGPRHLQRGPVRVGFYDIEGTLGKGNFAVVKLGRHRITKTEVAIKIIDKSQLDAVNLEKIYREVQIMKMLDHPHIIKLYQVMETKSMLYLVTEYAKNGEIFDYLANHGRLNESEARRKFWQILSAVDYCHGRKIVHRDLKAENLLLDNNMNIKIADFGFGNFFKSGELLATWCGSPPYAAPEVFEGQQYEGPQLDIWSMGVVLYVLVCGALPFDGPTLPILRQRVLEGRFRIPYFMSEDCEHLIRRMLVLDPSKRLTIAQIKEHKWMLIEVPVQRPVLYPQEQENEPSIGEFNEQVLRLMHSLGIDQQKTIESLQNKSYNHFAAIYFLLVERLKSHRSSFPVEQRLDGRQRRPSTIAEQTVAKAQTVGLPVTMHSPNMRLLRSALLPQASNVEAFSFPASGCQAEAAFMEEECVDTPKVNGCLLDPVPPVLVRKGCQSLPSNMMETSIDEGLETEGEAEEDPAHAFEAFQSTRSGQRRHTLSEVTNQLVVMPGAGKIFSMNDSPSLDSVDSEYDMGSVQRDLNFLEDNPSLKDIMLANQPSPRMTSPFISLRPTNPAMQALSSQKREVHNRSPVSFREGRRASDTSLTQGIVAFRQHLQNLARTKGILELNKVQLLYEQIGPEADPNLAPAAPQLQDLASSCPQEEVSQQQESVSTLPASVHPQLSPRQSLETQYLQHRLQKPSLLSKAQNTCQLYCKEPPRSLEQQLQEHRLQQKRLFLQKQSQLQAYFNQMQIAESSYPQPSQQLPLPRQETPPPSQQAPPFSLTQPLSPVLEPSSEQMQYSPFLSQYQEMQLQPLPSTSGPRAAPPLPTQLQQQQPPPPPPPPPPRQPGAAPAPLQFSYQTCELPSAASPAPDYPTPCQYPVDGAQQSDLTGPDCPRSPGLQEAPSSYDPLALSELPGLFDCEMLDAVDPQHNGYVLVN

| Structure (SMILES) | logFC [1] | logFC ULK1 ([1]; experiment wp168) | logFC MAP3K20 (Q9NYL2-2) ([2]; Experiment wp168) | logFC MAPK8 (P45983-4) [2, 5] | logFC MAPK8 ([2]; experiment wp168) | logFC MAPK14 [2, 6] | logFC MAPK14 [2, 7] | logFC [2, 8] | logFC PTK2B [2, 9] | kinases the bifunctional compound degrades [2] | logFC MAP3K20 (Q9NYL2-2) ([2]; experiment wp168) | Kinase hits [2] | Total no. kinase hits [2] | logFC of SIK2 [3] | logFC SIK2 (Q9H0K1) [3] | also measured |
| --- | --- | --- | --- | --- | --- | --- | --- | --- | --- | --- | --- | --- | --- | --- | --- | --- |
| Cc1ccc(NC(=O)c2cccc(C(F)(F)F)c2)cc1N1Cc2cnc(Nc3ccc(N4CCN(CCCCC(=O)N[C@H](C(=O)N5C[C@H](O)C[C@H]5C(=O)N[C@@H](C)c5ccc(-c6scnc6C)cc5)C(C)(C)C)CC4)nc3)nc2N(C)C1=O [DB1113] | −0.352 | −0.352 | −0.9693 | −0.3642 | −0.3642 | −1.588 | −1.588 | −1.705 | −1.705 | ABL1, ABL2, BLK, CDK11B, CDK4, CSK, EPHA3, FER, GAK, LIMK1, MAP3K20, MAP4K1, MAP4K2, MAP4K3, MAP4K5, MAPK14, MAPK7, MAPK8, MAPK9, MAPKAPK2, MAPKAPK3, NLK, PDIK1L, PTK2B, RIPK1, RPS6KA1, RPS6KA3, SIK2, SIK3, STK35, TNK2, and ULK1 | −0.9693 | ABL1, ABL2, BLK, CDK11B, CDK4, CSK, EPHA3, FER, GAK, LIMK1, MAP3K20, MAP4K1, MAP4K2, MAP4K3, MAP4K5, MAPK14, MAPK7, MAPK8, MAPK9, MAPKAPK2, MAPKAPK3, NLK, PDIK1L, PTK2B, RIPK1, RPS6KA1, RPS6KA3, SIK2, SIK3, STK35, TNK2, ULK1 | 31 | −0.7296 | −0.7296 | – |
| CS(=O)(=O)Nc1cccc(-c2csc3cnc(Nc4ccc(N5CCN(CCOCCOCCOc6cccc7c6C(=O)N(C6CCC(=O)NC6=O)C7=O)CC5)cc4)nc23)c1 (stereo not drawn) [RSS0628] | −0.5583 | – | – | – | – | – | – | – | – | AAK1. AURKA, CAMKK1, CDK4, CDK6, LIMK2, NEK9, PTK2B, STK17A, STK17B, ULK1, ULK3, and WEE1 | – | AAK1, AURKA, CAMKK1, CDK4, CDK6, LIMK2, NEK9, PTK2B, STK17A, STK17B, ULK1, ULK3, WEE1 | 13 | – | – | logFC ULK1 ([1]; experiment wp045): −0.5583; logFC ([2]; CAMKK1 (Q8N5S9-2), experiment wp045): −0.3412; logFC of CAMKK1 (Q8N5S9-2) ([2]; Experiment wp045): −0.3412; logFC WEE1 (P30291-1) ([4]; experiment wp045): −1.578 |
| Cc1ccc(NC(=O)c2cccc(C(F)(F)F)c2)cc1N1Cc2cnc(Nc3ccc(N4CCN(CCCOc5cccc6c5C(=O)N(C5CCC(=O)NC5=O)C6=O)CC4)nc3)nc2N(C)C1=O (stereo not drawn) [DB0662] | −0.3582 | −0.3582 | −1.006 | −0.8961 | −0.8961 | −1.34 | −1.34 | −3.245 | −3.245 | ABL1, ABL2, BLK, BUB1, CDK11B, CDK4, CSK, EPHB6, FER. FYN, GAK, LCK, LIMK1, MAP3K1, MAP3K11, MAP3K20, MAP4K1, MAPK14, MAPK8, MAPK9, MAPKAPK2, MKNK2, PAK4, PDIK1L, PTK2B, RPS6KA1, RPS6KA3, SIK2, SRC, TNK2, UHMK1, ULK1, and YES1 | −1.006 | ABL1, ABL2, BLK, BUB1, CDK11B, CDK4, CSK, EPHB6, FER, FYN, GAK, LCK, LIMK1, MAP3K1, MAP3K11, MAP3K20, MAP4K1, MAPK14, MAPK8, MAPK9, MAPKAPK2, MKNK2, PAK4, PDIK1L, PTK2B, RPS6KA1, RPS6KA3, SIK2, SRC, TNK2, UHMK1, ULK1,YES1 | 33 | −0.777 | −0.777 | logFC FYN ([2]; Accession P06241-2, experiment wp168): −0.5636; logFC FYN ([2]; FYN P06241-2, experiment wp168): −0.5636 |
| CC(C)S(=O)(=O)c1ccccc1Nc1nc(Nc2ccc(N3CCN(CCOCCOCCC(=O)NCCNc4cccc5c4CN(C4CCC(=O)NC4=O)C5=O)CC3)cc2)ncc1Cl (stereo not drawn) [TL13.97] | −1.877 | – | – | – | – | – | – | – | – | – | – | – | – | – | – | logFC ULK1 ([1]; experiment wp137): −1.877; logFC [2, 10]: −0.7523; logFC AURKB [2, 10]: −0.7523; logFC BUB1B ([2]; Accession O60566-3, experiment wp137, direction down): −0.3313; logFC of SRC ([2]; Accession P12931-2, experiment wp137): −0.4824; logFC of CDK17 ([2]; Accession Q00537-2, experiment wp137): −0.5683; logFC BUB1B ([2]; BUB1B (O60566-3), experiment wp137): −0.3313; logFC ([2]; CDK9 (P50750-2) protein abundance, degrader vs DMSO, down): −1.37; logFC PRKAA1 (Q13131-2) ([2]; Experiment wp137, direction down): −0.6678; logFC LCK ([2]; LCK, accession P06239-3, experiment wp137, direction of change down): −0.8721; logFC RPS6KA1 ([2]; RPS6KA1 (Q15418-2), experiment wp137): −0.3757; logFC ([2]; SRC (P12931-2) protein abundance, degrader vs DMSO, down): −0.4824; logFC CDK9 (P50750-2) ([2]; experiment wp137): −1.37; logFC PRKAA1 (Q13131-2) ([2]; experiment wp137): −0.6678; logFC RPS6KA1 (Q15418-2) ([2]; experiment wp137): −0.3757; logFC of CDK17 (Q00537-2) ([2]; experiment wp137): −0.5683; logFC LCK (P06239-3) ([2]; experiment wp137, direction of change down): −0.8721; logFC of WEE1 ([4]; WEE1 P30291-1, experiment wp137): −1.585; logFC WEE1 (P30291-1) ([4]; experiment wp137): −1.585 |
